In US20070191493A1, “Use of n-alkanols as activators of the cftr channel” (priority 2003, published 2007):

Columns and labels:
CHO cells = experiment: ATP-induced calcium response (cellular uncoupling) in CHO cells; format: cell-based, Chinese hamster; settings: α-GA 10 to 100 μM, octan-1-ol 1 mM
Protocol: The Ca^2+ measurements are carried out in the presence of fura-2 (impermeant fluorescent probe) which binds […]. The cells are incubated in serum-free DMEM/F12 culture medium in the presence of the permeant form of fura-2 (fura-2/AM, 2.5 μM) for 1 h at 37° C. The cells, placed on the platform of an epifluorescent microscope (Olympus) (20× objective), are perfused with the solutions to be tested (e.g. ATP, octanol). They are sequentially illuminated at 340 nm and 380 nm and the fluorescence emitted (F) is measured at 510 nm. It is detected via a 12-bit CCD camera (Sony) connected to a data processing computer unit (TILL Photonics). The intracellular Ca^2+ concentration [Ca^2+]i is calculated using the Grynckiewicz equation (Grynckiewicz et al., 1985): [Ca^2+]i=Kdi *(R−Rmin/Rmax−R), based on the ratiometric analysis R (340/380 nm) of the fluorescence (TILL Vision); Rmax and Rmin denote the ratio of fluorescence measured in the presence or in the absence of Ca^2+.

CFTR channel = CFTR channel (Homo sapiens, UniProt P13569); experiment: 125I radioactive iodide efflux in CHO-CFTR(+) cells; format: cell-based; set-up: expressed in transfected cells; host or cells: CHO (Chinese hamster ovary) cells, CHO-CFTR(+); settings: CHO-CFTR(+) cells; n-alkanols 1 mM, FSK 1 μM, A23187 2 μM, α-GA 10 and 100 μM
CFTR channel, sequence (P13569 whole entry): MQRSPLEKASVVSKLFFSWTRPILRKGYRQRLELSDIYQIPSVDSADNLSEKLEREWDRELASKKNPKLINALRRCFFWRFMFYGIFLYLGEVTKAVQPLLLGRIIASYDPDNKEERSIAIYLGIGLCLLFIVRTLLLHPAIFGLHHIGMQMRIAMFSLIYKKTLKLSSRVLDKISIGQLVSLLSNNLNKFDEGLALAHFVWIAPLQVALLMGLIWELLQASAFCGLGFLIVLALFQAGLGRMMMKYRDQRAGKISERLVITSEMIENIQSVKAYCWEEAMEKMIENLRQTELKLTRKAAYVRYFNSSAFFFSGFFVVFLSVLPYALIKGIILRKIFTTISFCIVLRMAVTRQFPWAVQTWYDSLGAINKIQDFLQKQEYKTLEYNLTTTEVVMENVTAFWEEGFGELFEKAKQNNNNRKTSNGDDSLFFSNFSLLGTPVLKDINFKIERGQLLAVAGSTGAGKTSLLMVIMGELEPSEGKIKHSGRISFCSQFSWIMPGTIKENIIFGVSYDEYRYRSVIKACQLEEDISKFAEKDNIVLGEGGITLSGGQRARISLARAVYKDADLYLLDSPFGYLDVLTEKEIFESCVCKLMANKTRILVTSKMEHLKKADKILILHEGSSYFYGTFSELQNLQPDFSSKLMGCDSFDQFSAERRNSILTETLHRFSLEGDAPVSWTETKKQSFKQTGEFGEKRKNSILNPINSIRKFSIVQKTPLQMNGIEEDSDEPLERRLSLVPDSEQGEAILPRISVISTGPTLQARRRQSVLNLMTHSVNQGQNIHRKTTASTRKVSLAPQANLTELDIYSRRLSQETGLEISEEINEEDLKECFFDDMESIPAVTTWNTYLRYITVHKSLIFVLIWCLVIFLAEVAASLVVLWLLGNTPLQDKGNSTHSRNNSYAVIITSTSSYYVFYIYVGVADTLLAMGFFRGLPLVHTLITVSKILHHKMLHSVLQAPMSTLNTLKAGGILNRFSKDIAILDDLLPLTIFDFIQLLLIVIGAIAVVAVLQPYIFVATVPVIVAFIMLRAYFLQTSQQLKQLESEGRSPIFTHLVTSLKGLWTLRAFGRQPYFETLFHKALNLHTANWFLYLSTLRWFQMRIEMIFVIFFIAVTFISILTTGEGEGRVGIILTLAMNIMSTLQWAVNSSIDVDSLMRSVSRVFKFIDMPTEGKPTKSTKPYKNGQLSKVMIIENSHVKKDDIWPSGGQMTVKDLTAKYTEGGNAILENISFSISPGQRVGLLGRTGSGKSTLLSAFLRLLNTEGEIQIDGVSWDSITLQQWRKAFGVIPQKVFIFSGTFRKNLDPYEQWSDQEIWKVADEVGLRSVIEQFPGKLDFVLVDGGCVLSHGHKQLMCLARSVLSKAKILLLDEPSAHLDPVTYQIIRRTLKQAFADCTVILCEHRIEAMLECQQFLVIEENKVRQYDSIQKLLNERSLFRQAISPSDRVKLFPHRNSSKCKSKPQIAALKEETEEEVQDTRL
Protocol: The cells are cultured in 24-well plates with a dilution to 1/10 after passage. […] The operation is repeated every 30 s for 2 to 6 min. […] All the samples are counted in a gamma counter (Kontron). The precipitated proteins are solubilized in 0.1N NaOH and quantified using a calorimetric test.
The tracer contained in the cell layer at the beginning of the efflux is calculated as the sum of the samples and of the extracts counted. The efflux curves are constructed by expressing the percentage of the content remaining in the cell layer (I %) with respect to time. The stimulated or nonstimulated efflux rate constants (k, min^−1) are determined by smoothing the efflux curves to a monoexponential function I %=100*exp(−kt) using a linear regression of the neperian logarithm of the data, k is used to calculate the iodide released into the medium with respect to time. The hypothesis is made that, in the presence of a stimulator, the efflux is the sum of two iodide effluxes occurring in parallel: a basal efflux and a stimulated efflux characterized, respectively, by the constants kb and ks. The total net efflux is then described by the equation It^%=100*(1−exp(−ktt)) where kt is the sum of kb and ks. Finally, ks calculated as kt−kb is used to establish a dose-response relationship for antagonists. The data is expressed as means ±SD, and the t-test is used to determine the significances. The concentration-response curves for agonists or for antagonists are smooth using the hyperbolic equation Y=Ymax*X/(EC5C+X), where Y is the response. Y begins at the basal level and progresses to the plateau (Ymax), X is the concentration and the half-effect values (EC are calculated using GraphPad Prism v3.0 (GraphPad software)).

activation of CFTR (125I efflux), in words (CFTR channel): no effect
SMILES: CC1(C)[C@@H](O)CC[C@]2(C)[C@H]3C(=O)C=C4[C@H]5C[C@@](C)(C(=O)O)CC[C@]5(C)CC[C@@]4(C)[C@]3(C)CC[C@@H]12 [α-GA, 18-alpha glycerrhetinic acid, reference compound]
cellular uncoupling shown by ATP-induced calcium response (CHO cells): clearly uncouples the cells
